Test results published in BindingDB's records for doi:10.7270/Q21V5CG8 (Burnham Center For Chemical Genomics, 2011).

The molecules below were run against T1, Cysteine protease ATG4B (Homo sapiens, UniProt Q9Y4P1) (assay: ATG4B protease inhibitors, dose response, biochemical, fluorescence, set 2 (AID 588584)).
T1 sequence (Q9Y4P1 whole entry): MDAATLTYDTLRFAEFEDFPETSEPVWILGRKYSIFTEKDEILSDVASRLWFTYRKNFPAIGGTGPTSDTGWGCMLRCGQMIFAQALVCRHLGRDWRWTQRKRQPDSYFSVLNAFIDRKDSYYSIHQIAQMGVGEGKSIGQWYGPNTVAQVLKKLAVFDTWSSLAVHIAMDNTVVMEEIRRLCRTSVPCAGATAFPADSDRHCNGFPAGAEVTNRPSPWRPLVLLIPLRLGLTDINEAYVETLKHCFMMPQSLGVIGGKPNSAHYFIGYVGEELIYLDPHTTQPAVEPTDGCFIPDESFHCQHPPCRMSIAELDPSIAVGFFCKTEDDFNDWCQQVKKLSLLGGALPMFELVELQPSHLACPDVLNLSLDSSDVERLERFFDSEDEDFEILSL

IC50 | Compound
30.6 µM | Cc1ccc(NC2=NC(=O)C(=Cc3c(C)[nH]c4ccccc34)S2)cc1 [5-[(2-methyl-1H-indol-3-yl)methylene]-2-[(4-methylphenyl)imino]-1,3-thiazolidin-4-one]
5.4 µM | Oc1ccc2ccccc2c1CN=Nc1nnc(-c2ncc[nH]2)c2ccccc12 [SMR000151639]
22.8 µM | CC1=CC(/C=N/n2c(COc3ccccc3)nc3ccccc3c2=O)C(=O)C([N+](=O)[O-])=C1 (stereo not drawn) [3-[[(E)-(3-methyl-5-nitro-6-oxocyclohexa-2,4-dien-1-ylidene)methyl]amino]-2-(phenoxymethyl)quinazolin-4-one]
